Results on five molecules are retold here after ChEMBL document CHEMBL5465560, “Selectivity Literature for EUbOPEN Chemogenomic Library” (2024).

Test [1] has as its target AMPK alpha2/beta2/gamma1 (Homo sapiens) (UniProt P54646+O43741+P54619). Briefly: (§1) Selectivity interaction (LanthaScreen Eu Kinase Binding Assay) EUB0001632a […]. In kind it is protein-complex assay. The conditions noted are these: at 10 µM.
Test [2] addresses AMP-activated protein kinase alpha-2/beta-2/gamma-2 (Homo sapiens) (UniProt P54646+O43741+Q9UGJ0). Described as §1. In kind it is protein-complex assay. The conditions noted are these: at 10 µM.
The target of test [3] is AMPK alpha1/beta1/gamma3 (Homo sapiens) (UniProt Q9Y478+Q13131+Q9UGI9). The test is described as §1. The conditions noted are these: at 10 µM. The format is protein-complex assay.
The target of test [4] is AMPK alpha1/beta2/gamma1 (Homo sapiens) (UniProt O43741+P54619+Q13131). The description is as §1. In kind it is protein-complex assay. The conditions noted are these: at 10 µM.
AMPK alpha1/beta2/gamma1 (Homo sapiens), sequence (O43741 whole entry, looked up): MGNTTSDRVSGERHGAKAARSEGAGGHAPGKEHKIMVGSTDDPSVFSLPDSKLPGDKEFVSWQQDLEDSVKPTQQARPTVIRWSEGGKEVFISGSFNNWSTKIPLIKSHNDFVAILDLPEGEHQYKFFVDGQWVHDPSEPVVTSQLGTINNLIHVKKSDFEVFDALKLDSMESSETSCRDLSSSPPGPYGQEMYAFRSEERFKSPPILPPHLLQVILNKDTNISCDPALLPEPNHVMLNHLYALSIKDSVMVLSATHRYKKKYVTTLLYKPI
AMPK alpha1/beta2/gamma1 (Homo sapiens), sequence (P54619 whole entry, looked up): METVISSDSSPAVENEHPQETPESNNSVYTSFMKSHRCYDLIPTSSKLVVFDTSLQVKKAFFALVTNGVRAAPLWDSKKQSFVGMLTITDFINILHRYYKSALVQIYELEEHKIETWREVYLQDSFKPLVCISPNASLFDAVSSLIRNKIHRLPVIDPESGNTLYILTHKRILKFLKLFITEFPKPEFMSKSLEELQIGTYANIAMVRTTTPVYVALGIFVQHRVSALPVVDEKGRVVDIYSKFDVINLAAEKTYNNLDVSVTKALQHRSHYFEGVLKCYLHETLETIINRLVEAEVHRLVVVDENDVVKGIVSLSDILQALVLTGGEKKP
AMPK alpha1/beta2/gamma1 (Homo sapiens), sequence (Q13131 whole entry, looked up): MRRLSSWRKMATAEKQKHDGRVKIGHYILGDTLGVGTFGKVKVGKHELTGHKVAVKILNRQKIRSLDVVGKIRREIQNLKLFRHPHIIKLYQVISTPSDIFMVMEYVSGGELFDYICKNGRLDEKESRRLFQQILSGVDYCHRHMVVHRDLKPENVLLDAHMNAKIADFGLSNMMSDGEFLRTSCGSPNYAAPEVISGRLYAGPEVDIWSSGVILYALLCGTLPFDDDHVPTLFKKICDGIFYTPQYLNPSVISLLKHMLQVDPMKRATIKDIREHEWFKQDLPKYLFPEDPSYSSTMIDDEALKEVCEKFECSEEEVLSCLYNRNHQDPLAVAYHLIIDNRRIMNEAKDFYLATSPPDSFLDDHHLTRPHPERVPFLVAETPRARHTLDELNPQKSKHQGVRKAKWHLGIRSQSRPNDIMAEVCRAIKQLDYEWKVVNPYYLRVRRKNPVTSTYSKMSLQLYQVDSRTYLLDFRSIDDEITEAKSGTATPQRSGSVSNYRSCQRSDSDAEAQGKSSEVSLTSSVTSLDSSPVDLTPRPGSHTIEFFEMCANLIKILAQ
The target in test [5] is AMPK alpha1/beta1/gamma2 (Homo sapiens) (UniProt Q9UGJ0+Q9Y478+Q13131). The test is described as §1. The format is protein-complex assay. The conditions noted are these: at 10 µM.
Test [6] deals with T1, Cyclin-dependent kinase 11A (Homo sapiens) (UniProt Q9UQ88).
T1 sequence (whole entry): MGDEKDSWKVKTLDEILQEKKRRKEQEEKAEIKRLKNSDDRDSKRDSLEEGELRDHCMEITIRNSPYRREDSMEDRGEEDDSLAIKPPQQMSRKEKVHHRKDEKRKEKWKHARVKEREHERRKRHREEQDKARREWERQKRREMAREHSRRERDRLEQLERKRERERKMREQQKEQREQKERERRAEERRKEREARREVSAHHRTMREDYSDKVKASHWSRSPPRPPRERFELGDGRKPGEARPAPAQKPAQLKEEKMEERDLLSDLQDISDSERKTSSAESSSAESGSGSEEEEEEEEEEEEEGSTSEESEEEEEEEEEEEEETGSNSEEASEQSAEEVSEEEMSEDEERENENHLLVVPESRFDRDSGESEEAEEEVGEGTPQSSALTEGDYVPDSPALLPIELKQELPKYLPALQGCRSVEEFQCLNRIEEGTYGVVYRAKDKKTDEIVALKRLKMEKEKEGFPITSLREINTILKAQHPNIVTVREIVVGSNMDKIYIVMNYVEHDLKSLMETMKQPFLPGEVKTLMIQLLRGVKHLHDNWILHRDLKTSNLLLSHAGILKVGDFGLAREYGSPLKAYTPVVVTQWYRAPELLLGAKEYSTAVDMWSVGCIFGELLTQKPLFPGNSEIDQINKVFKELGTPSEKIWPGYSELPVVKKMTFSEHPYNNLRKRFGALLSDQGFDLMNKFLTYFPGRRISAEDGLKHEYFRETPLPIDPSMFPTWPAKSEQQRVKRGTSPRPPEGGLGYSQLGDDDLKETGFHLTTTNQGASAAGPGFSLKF
Briefly: Selectivity interaction (KinomeScan (DiscoverX)) EUB0000607a CDK11A. The conditions noted are these: at 10 µM.

The subject of test [7] is T2, Receptor-type tyrosine-protein kinase FLT3 (Homo sapiens), P36888 [K663Q].
T2 sequence (whole entry): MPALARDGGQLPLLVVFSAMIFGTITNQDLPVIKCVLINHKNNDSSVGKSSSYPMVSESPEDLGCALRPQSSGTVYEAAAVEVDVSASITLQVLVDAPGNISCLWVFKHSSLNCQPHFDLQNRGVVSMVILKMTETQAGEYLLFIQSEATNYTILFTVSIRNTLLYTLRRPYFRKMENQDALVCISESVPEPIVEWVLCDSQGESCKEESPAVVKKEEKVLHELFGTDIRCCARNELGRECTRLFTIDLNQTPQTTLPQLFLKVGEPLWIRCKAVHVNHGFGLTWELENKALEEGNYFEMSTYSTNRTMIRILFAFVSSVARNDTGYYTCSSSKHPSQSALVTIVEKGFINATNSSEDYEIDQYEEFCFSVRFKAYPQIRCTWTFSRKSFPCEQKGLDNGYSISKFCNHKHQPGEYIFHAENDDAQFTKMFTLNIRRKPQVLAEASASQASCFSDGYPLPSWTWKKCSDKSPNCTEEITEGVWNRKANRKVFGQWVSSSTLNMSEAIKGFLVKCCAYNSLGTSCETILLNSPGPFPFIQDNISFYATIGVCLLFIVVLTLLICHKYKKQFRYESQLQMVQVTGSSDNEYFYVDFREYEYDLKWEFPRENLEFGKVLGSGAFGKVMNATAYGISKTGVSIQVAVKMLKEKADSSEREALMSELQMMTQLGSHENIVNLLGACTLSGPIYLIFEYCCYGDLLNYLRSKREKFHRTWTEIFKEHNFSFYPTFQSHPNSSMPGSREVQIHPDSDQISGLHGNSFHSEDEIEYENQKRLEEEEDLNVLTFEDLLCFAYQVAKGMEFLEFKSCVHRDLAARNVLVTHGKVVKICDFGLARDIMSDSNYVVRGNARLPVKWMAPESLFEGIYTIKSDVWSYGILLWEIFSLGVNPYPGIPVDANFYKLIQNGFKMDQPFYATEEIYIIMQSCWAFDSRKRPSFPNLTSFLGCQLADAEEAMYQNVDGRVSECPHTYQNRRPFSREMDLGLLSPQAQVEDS
Briefly: Selectivity interaction (KinomeScan (DiscoverX)) EUB0000311b FLT3. As to conditions: at 1 µM.

For test [8], the target named is T3, Inhibitor of nuclear factor kappa-B kinase subunit epsilon (Homo sapiens) (UniProt Q14164).
T3 sequence (whole entry): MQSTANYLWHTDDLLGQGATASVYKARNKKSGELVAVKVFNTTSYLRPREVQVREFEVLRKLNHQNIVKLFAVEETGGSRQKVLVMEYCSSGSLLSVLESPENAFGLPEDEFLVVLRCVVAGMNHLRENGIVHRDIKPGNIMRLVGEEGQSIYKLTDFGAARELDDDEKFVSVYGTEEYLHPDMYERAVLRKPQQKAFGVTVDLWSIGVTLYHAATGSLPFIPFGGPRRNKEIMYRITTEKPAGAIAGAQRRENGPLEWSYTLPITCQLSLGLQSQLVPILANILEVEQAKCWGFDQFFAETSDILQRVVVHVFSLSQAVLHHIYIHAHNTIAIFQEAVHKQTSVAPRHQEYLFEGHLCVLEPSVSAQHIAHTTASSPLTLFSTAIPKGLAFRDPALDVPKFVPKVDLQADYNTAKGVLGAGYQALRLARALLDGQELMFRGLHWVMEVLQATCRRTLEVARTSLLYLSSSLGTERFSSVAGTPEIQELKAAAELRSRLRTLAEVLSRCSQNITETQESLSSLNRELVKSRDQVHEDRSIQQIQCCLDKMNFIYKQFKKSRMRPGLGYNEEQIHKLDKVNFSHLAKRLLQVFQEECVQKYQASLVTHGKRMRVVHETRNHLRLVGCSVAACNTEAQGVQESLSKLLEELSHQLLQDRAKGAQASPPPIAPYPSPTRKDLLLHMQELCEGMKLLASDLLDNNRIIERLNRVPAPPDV
Briefly: Selectivity interaction (KinomeScan (DiscoverX)) EUB0000695a IKBKE. The conditions noted are these: at 100 nM.

The target of test [9] is Tyrosine-protein kinase BAZ1B (Homo sapiens) (UniProt Q9UIG0). Briefly: Selectivity interaction (Human bromodomain panel (DSF assay)) EUB0000233b BAZ1B. Background: Differential scanning fluorimetry follows unfolding on heating by fluorescence.

SMILES strings stand for the structures.

AMPK alpha2/beta2/gamma1 (Homo sapiens), sequence (O43741 whole entry, looked up): as the sequence (O43741 whole entry, looked up) above
AMPK alpha2/beta2/gamma1 (Homo sapiens), sequence (P54619 whole entry, looked up): as the sequence (P54619 whole entry, looked up) above
AMPK alpha2/beta2/gamma1 (Homo sapiens), sequence (P54646 whole entry, looked up): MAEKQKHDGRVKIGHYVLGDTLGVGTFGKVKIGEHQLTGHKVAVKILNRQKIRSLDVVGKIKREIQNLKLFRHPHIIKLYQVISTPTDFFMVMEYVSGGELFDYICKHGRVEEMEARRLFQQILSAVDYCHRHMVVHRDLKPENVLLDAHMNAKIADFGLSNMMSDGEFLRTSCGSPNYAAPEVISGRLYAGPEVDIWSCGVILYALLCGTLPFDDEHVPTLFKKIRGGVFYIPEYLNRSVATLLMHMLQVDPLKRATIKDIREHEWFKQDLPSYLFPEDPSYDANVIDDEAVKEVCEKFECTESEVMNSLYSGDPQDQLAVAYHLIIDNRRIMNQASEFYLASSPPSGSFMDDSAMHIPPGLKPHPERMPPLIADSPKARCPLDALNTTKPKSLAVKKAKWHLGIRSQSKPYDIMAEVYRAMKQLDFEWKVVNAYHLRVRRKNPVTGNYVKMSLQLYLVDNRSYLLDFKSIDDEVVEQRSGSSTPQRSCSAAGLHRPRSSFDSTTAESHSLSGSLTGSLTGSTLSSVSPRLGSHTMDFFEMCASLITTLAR
AMP-activated protein kinase alpha-2/beta-2/gamma-2 (Homo sapiens), sequence (O43741 whole entry, looked up): as the sequence (O43741 whole entry, looked up) above
AMP-activated protein kinase alpha-2/beta-2/gamma-2 (Homo sapiens), sequence (P54646 whole entry, looked up): as the sequence (P54646 whole entry, looked up) above
AMP-activated protein kinase alpha-2/beta-2/gamma-2 (Homo sapiens), sequence (Q9UGJ0 whole entry, looked up): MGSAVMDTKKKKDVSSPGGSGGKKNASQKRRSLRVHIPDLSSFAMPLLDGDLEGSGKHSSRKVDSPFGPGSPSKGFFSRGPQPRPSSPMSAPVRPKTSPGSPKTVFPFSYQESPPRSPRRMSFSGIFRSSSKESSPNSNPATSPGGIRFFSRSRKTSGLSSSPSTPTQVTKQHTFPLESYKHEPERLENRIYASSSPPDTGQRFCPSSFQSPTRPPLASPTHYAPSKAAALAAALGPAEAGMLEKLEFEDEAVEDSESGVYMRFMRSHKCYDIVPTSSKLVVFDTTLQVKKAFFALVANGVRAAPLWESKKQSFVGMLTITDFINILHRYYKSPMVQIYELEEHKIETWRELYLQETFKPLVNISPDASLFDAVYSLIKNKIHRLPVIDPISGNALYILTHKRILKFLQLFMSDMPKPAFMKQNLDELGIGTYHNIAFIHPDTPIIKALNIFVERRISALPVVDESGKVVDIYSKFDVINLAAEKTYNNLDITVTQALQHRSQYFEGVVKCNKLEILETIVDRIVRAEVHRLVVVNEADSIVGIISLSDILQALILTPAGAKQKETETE

For `Cn1cc(-n2cnc3c(NCc4nc5cc(Cl)c(Cl)cc5[nH]4)nc(N4CCOCC4)nc32)cn1`, the % of inhibition was -4.3% in [1]; 1.19% in [2]; 2.78% in test [3]; -9.67% in test [4]; 0.872% in test [5].

In test [6], `CNC(=O)Nc1ccc(-c2nc(N3CC4CCC(C3)O4)c3cnn(C4CCC5(CC4)OCCO5)c3n2)cc1` came in with a % of control of 100%.

`CCc1ccccc1C(=O)Nc1n[nH]c2c(C)c(F)c(C3C(C#N)=C(C)N(C)C(C)=C3C#N)cc12` [BAY-3827]: in test [7], the % of control was found to be 13%.

For the molecule `Cc1cc(F)c(C(=O)Nc2cccc(-c3nncn3C(C)C)n2)cc1-n1cnc(C2CC2)c1`, in test [8], the % of control is 100%.

`CN(C)CCCOc1ccc(-c2cc(NCCCn3cccn3)nc(S(C)(=O)=O)n2)cc1` displayed a dTM in test [9] below 2 K.
